{"source": "patent US20120258944A1", "about": "“ANTIOXIDANTS FOR USE IN THERAPY” (priority 2009, published 2012)", "key": {"[1]": {"test_system": "human Neutrophils and human PBMCs", "test": "Intracellular ROS, luminol luminescence with SOD and catalase, PMA or fMLF stimulated cells", "assay_type": "cell-based", "conditions": "PMA or fMLF 30 ng/ml; compounds 120, 60, 30 microM; FIG. 5-8", "method": "(§1) Validation was performed by stimulating cells with PMA and fMLF. When treated with the antioxidants, altered level of ROS production from the cells was measured using luminometry. Both intracellular and extracellular effect on ROS on the cells was analyzed using isoluminol (extracellular) and luminol (intracellular when co-administered with SOD and catalase) (Dahlgren et al. “Respiratory burst in human neutrophils”, Journal of Immunological Methods 232 1999; 3-14).\nThe luminol reagent buffer is made of HBSS buffer (with Ca^2+), luminol and SOD/Catalase.\n(§2) 1) Add 25 microL of antioxidants to assay plate to get proper concentrations in a total reaction volume of 100 micro-L. 2) Add 25 microL of PMA (120 ng/ml) and fMLF (120 ng/ml) to assay plate to get concentration of 30 ng/ml in a total reaction volume of 100 microL. 3) Add 50 microL of cell suspension (2 million cells/ml) to each well. Immediately after addition of cell suspension initiate luminescence measurement; the reaction starts at once when the cells are added to the assay plate. Measurement points are taken at 1-minute intervals for 25 minutes. Data is presented as AUC (Area Under Curve) by a summary of all collected measurements for each well.\nFIG. 5: Intracellular ROS analyzed by Luminol (intracellular ROS) induced luminescence in human Neutrophils. ROS induced with PMA (30 ng/ml) with 200, 100 or 0 microM NAC. Concentrations of compounds 120, 60, 30 and 0 microM final concentrations.\nFIG. 6: Intracellular ROS analyzed by Luminol (intracellular ROS) induced luminescence in human Neutrophils. ROS induced with fMLF (30 ng/ml) with 200, 100 or 0 microM NAC. Concentrations of compounds 120, 60, 30 and 0 microM final concentrations.\nFIG. 7: Intracellular ROS analyzed by Luminol (intracellular ROS) induced luminescence in human PBMCs. ROS induced with PMA (30 ng/ml) with 200, 100 or 0 microM NAC. Concentrations of compounds 120, 60, 30 and 0 microM final concentrations.\nFIG. 8: Intracellular ROS analyzed by Luminol (intracellular ROS) induced luminescence in human PBMCs. […]"}, "[2]": {"test_system": "human neutrophils and PBMCs, rat neutrophils and PBMCs, human PLB-985 cell line", "test": "Extracellular ROS, isoluminol luminescence, PMA or fMLF stimulated cells", "assay_type": "cell-based", "conditions": "PMA or fMLF 30 ng/ml; compounds 120 to 0 microM; FIG. 1-4, 9-12, 14-17", "method": "as §1\nThe isoluminol reagent buffer was made of HBSS buffer (with Ca^2+), Isoluminol and HRP.\nas §2\nFIG. 1: Extracellular ROS analyzed by Isoluminol induced luminescence in human Neutrophils. ROS induced with PMA (30 ng/ml) with 200, 100 or 0 microM NAC. Concentrations of compounds 120, 60, 30 and 0 microM final concentrations.\nFIG. 9: Extracellular ROS analyzed by Isoluminol induced luminescence in rat Neutrophils. ROS induced with PMA (30 ng/ml) with 200, 100 or 0 microM NAC. Concentrations of compounds 120, 60, 30 and 0 microM final concentrations.\nFIG. 11: Extracellular ROS analyzed by Isoluminol induced luminescence in human PLB-985 cell line. ROS induced with PMA (30 ng/ml) with 200, 100 or 0 microM NAC. Concentrations of compounds 120, 60, 30 and 0 microM final concentrations."}, "[3]": {"conditions": "cited from earlier work; for Inhibited Rate of Linoleic Acid Peroxidation (Rinh): two-phase model, N-acetylcysteine in the aqueous phase"}, "[4]": {"test_system": "human umbilical vein endothelial cells (HUVEC)", "test": "XTT in vitro toxicology test in human umbilical vein endothelial cells", "assay_type": "cell-based", "conditions": "for toxic concentration: HUVEC; for relative toxicity among the compounds: human endothelial cells, up to 72 hours", "method": "As a negative control, cells incubated with medium containing 0.5% DMSO (corresponding to the highest DMSO concentration above) was used. As a positive control, cells were incubated in the presence of 20% EtOH.\nAfter the incubation with the compounds, the wells were washed with PBS to remove substances which could interfere with the assay. 40 μl of fresh medium 200 without phenol red was added together with 10 μl XTT substance (according to the manufacturer's instructions). The plates were incubated for 8 hrs and the colour development was monitored by measuring the absorbance at 450 nm.\nAfter incubation, the number of viable cells was assessed by observing the amount of metabolized XTT (2,3-bis[2-methoxy-4-nitro-5-sulphophenyl]-2H-tetrazolium-5-carboxyanilide inner salt)."}, "[5]": {"test_system": "human umbilical vein endothelial cells (HUVEC)", "test": "Visual evaluation of HUVECs under the microscope (dislodging from the surface)", "conditions": "HUVEC", "method": "Cells were harvested and resuspended in supplemented medium 200 without phenol red. 50 000 cells were added in duplicates to 96-well plates. The compounds were tested on HUVECs according to the following concentrations.\nThe compounds were diluted in Medium 200 from the 0.1M stock solution. The toxic effects of the compounds were tested after 24 hrs, 48 hrs and 72 hrs.\nBy visually looking at the cells under the microscope and estimating the dislodging from the surface, the state of the cells was evaluated."}, "[6]": {"test_system": "PLB985 cells", "test": "Resazurin based in vitro toxicology assay (TOX8)", "assay_type": "cell-based, human", "conditions": "PLB985, 3 hours, 120 μM", "method": "The viability of cells treated with the compounds was also analyzed using a Resazurin based in vitro Toxicology Assay Kit (SigmaAldrich TOX8). Resazurin systems measure the metabolic activity of living cell. Resazurin in its oxidized form (blue) is reduced (red) by living cells and the amount of dye conversion is measured fluorometrically or spectrophotometrically indicating the degree of cytotoxicity.\n1) 75 micro-l of PLB985 cells (1 million cells/ml) is mixed with 25 micro-l of Compounds 1, 2, 3 and D (480, 120, 15 and 0.48 micro-M) in a 96 well plate in duplicates. 2) 10 micro-L of Resazurin solution is added to each well and the plate is incubated at 37° C. for 3 hours. 3) Spectrophotometrical analysis is performed in plate reader at 600 and 690 nm.\nFIG. 18: Cell viability of compounds in human PLB-985 cell line. Concentrations of compounds 120; 60; 30; 3.75; 0.12 and […] final concentrations. Measurement that indicates cell cytotoxicity (In vitro toxicology assay, TOX-8). The bars show increased level of cytotoxicity (analysis of absorbance of 600 nm substracted with absorbance 690 nm)."}, "[7]": {"test_system": "kidney slice", "test": "Organ model TBARS experiment (TBA-MDA assay) in kidney slices"}, "[8]": {"test": "ABTS radical cation assay (TEAC) in aqueous PBS buffer", "conditions": "6.08 micro-M, PBS buffer pH 7.4, after 5 min", "method": "In order to investigate its aqueous phase performance, we thought that it would be interesting to determine its Trolox Equivalent Antioxidant Capacity (TEAC) (Free Rad. Biol. Med. 1999, 26, 1231-1237) which has been used to quantify the antioxidant activity of biological fluids, extracts and pure compounds. The TEAC value is defined as the concentration of Trolox which has an equivalent antioxidant potential as a 1 mM solution of the compound under investigation (Free Rad. Biol. Med. 1996, 20, 933-956).\nA 2,2′-azinobis(3-ethylbenzothiazoline-6 sulphonic acid radical cation (ABTS•+) assay was used to determine relative TEAC values. To a preformed solution of ABTS•+ in PBS buffer, pH 7.4, with an absorbance slightly above 0.7 were added various amounts (3-30 microM) of organoselenium compound 1, Trolox, sodium ascorbate and N-acetylcysteine. The absorbance at 734 inn was recorded immediately after mixing and then every minute for the next 8 minutes.\nAntioxidant activity as determined by the capacity of the antioxidant to decolorize the ABTS^+ radical cation was determined essentially as described in the literature (Acc. Chem. Res. 1986, 19, 194-201). […] In a typical experiment, the antioxidant (1.52 micro-L of a 3.00 mM solution in MeOH or water; final concentration=6.08 micro-M) was syringed into 0.750 mL of the ABTS^+ radical cation solution. After initial mixing, the absorbance was recorded every minute for the next eight minutes."}, "[9]": {"test_system": "MG-63, HEK-293, SHSY-5y, MRC-5 and CaCo-2-cells", "test": "Alamar Blue cell viability/proliferation assay", "assay_type": "cell-based, human", "conditions": "60 micro-M, day 1 to day 7", "excerpt": "Alamar Blue is a non-toxic metabolic indicator for viable cells. Following uptake, the dye becomes reduced and causes a change in the colour of the cell. The colour change correlates reasonably well with the number of living cells in the sample.\nCells w/o antioxidant were used as controls.\nAlamar Blue is a non-toxic metabolic indicator for viable cells. Upon uptake into the cell the dye becomes reduced and changes colour. The colour change correlates approximately with the number of living cells in the sample."}, "[10]": {"test_system": "liver microsomes", "conditions": "cited from earlier work"}, "[11]": {"conditions": "coupled reductase method; cited from earlier work"}}, "data": [{"smiles": "CC[Te]c1nc(C)cc(C)c1O", "note": "[Comparative Compound 2]", "values": [{"measurement": "antioxidative effect on intracellular ROS", "setting": "[1]", "value": "lesser effect"}, {"measurement": "antioxidative effect on extracellular ROS", "setting": "[2]", "value": "less potent"}, {"measurement": "Inhibited Rate of Linoleic Acid Peroxidation (Rinh)", "setting": "[3]", "value": 22, "unit": "µM/h"}, {"measurement": "toxic concentration", "setting": "[4]; 24 hrs incubation", "value": 500, "unit": "µM"}, {"measurement": "toxic concentration", "setting": "[4]; 48 hrs incubation", "value": 200, "unit": "µM"}, {"measurement": "toxic concentration", "setting": "[4]; 72 hrs incubation", "value": 200, "unit": "µM"}, {"measurement": "relative toxicity among the compounds", "setting": "[4]", "value": "slightly more toxic than Compounds 1"}, {"measurement": "concentration at which cells were affected (visual)", "setting": "[5]; 24 hrs", "value": 500, "unit": "µM"}, {"measurement": "concentration at which cells were affected (visual)", "setting": "[5]; 48 hrs", "value": 200, "unit": "µM"}, {"measurement": "cell viability at highest concentration", "setting": "[6]", "value": "decrease in cell viability"}]}, {"smiles": "CCCCCCCC[Te]c1nc(C)cc(C)c1O", "note": "[Comparative Compound 3]", "values": [{"measurement": "antioxidative effect on intracellular ROS", "setting": "[1]", "value": "lesser effect"}, {"measurement": "antioxidative effect on extracellular ROS", "setting": "[2]", "value": "less potent"}, {"measurement": "Inhibited Rate of Linoleic Acid Peroxidation (Rinh)", "setting": "[3]", "value": 8, "unit": "µM/h"}, {"measurement": "toxic concentration", "setting": "[4]; 24 hrs incubation", "value": 100, "unit": "µM"}, {"measurement": "toxic concentration", "setting": "[4]; 48 hrs incubation", "value": 100, "unit": "µM"}, {"measurement": "toxic concentration", "setting": "[4]; 72 hrs incubation", "value": 100, "unit": "µM"}, {"measurement": "relative toxicity among the compounds", "setting": "[4]", "value": "most toxic compound"}, {"measurement": "concentration at which cells were affected (visual)", "setting": "[5]; 24 hrs", "value": 100, "unit": "µM"}, {"measurement": "cell viability at highest concentration", "setting": "[6]", "value": "decrease in cell viability"}]}, {"smiles": "Cc1cc2c(c(C)c1O)CC(C)[Se]2", "note": "(stereo not shown) [Compound 6]", "values": [{"measurement": "potency as inhibitor of TBARS production compared with references", "setting": "[7]", "value": "more potent inhibitors of TBARS production than Trolox and N-acetylcysteine"}, {"measurement": "concentration able to inhibit 50% of the TBARS formation in the control incubation", "setting": "[7]; re-oxygenation after Argon", "value": "sub-micromolar"}]}, {"smiles": "CC(=O)N[C@@H](CS)C(=O)O", "note": "[N-acetylcysteine]", "values": [{"measurement": "TEAC value", "setting": "[8]", "value": 2.4}]}, {"smiles": "Cc1c(C)c2c(c(C)c1O)CCC(C)(C(=O)O)O2", "note": "(stereo not shown) [Trolox]", "values": [{"measurement": "cell growth (Alamar Blue)", "setting": "[9]", "value": "normal cell growth patterns"}]}, {"smiles": "Oc1ccc2c(c1)CCO2", "note": "[X═O]", "values": [{"measurement": "inhibition of lipid peroxidation in liver microsomes", "setting": "[10]", "value": "not effective"}]}, {"smiles": "Oc1ccc2c(c1)CCS2", "note": "[X═S]", "values": [{"measurement": "inhibition of lipid peroxidation in liver microsomes", "setting": "[10]", "value": "not effective"}]}, {"smiles": "Oc1ccc2c(c1)CC[Se]2", "note": "[X═Se]", "values": [{"measurement": "inhibition of azo-initiated peroxidation of linoleic acid", "setting": "[3]; two-phase system, absence of thiol reducing agent", "value": "poor inhibitor"}, {"measurement": "catalyst activity in the reaction between glutathione and hydroperoxide (thiol peroxidase activity)", "setting": "[11]", "value": "insignificant"}, {"measurement": "inhibition of lipid peroxidation in liver microsomes", "setting": "[10]", "value": "not effective"}]}, {"smiles": "Oc1ccc2c(c1)CC[Te]2", "note": "[X═Te]", "values": [{"measurement": "antioxidant capacity", "setting": "[3]; two-phase system, presence of a reducing agent", "value": "best antioxidant capacity"}, {"measurement": "catalyst activity in the reaction between glutathione and hydroperoxide (thiol peroxidase activity)", "setting": "[11]", "value": "highly active catalyst"}, {"measurement": "inhibition of lipid peroxidation in liver microsomes", "setting": "[10]", "value": "potent inhibitor"}]}]}
